Experimental data reported in patent US20260193271A1, “PAN-KRAS INHIBITOR COMPOUND” (ADLAI NORTYE BIOPHARMA CO., LTD., priority 2022, published 2026).

How the values were obtained:
[1] = system: AsPC-1 (G12D); assay: In vitro cell proliferation inhibition test (CellTiter-Glo), AsPC-1; type: cell-based; details: Homo sapiens, ASPC1, AsPC-1 pancreas cell line, KRAS (p.G12D), 72 h co-incubation
How it was run: (§1)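 IC50 was derived by four-parameter fitting of normalized CellTiter-Glo signals. These were measured after 72 h co-incubation with compound at 10 concentrations, 3-fold serial, final maximum 10 μM. Plating was 1000-5000 cells/well, adjusted to growth rate, with overnight attachment at 37 °C, 5% CO2.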

[2] = system: SW480 (G12V); assay: In vitro cell proliferation inhibition test (CellTiter-Glo), SW480; type: cell-based; details: Homo sapiens, SW480 colon cell line, KRAS (p.G12V), 72 h co-incubation
How it was run: as §1

Row | IC50 [1] | IC50 [2] | Structure (SMILES)
1 | 1.3 nM | 1.6 nM | CCn1c(-c2cc(-c3cc([C@@H]4COCCN4C)on3)cnc2[C@H](C)OC)c2c3cc(ccc31)-c1csc(n1)C[C@H](NC(=O)[C@H]1[C@H](C)[C@@H]1C)C(=O)N1CCC[C@H](N1)C(=O)OCC(C)(C)C2 (atropisomer, axis not shown) [Compound 32, (1r,2R,3S)-N-((6^3S,4S,Z)-1^1-ethyl-1^2-(2-((S)-1-methoxyethyl)-5-(5-((S)-4-methylmorpholin-3-yl)isoxazol-3-yl)pyridin-3-yl)-10,10-dimethyl-5,7-dioxo-6^1,6^2,6^3,6^4,6^5,6^6-hexahydro-1^1H-8-oxa-2(4,2)-thiazola-1(5,3)-indola-6(1,3)-pyridazinacycloundecaphane-4-yl)-2,3-dimethylcyclopropane-1-carboxamide]
2 | 0.86 nM | 2.1 nM | CCn1c(-c2cc(-c3cc([C@H]4COCCN4C)on3)cnc2[C@H](C)OC)c2c3cc(ccc31)-c1csc(n1)C[C@H](NC(=O)[C@H]1[C@H](C)[C@@H]1C)C(=O)N1CCC[C@H](N1)C(=O)OCC(C)(C)C2 (atropisomer, axis not shown) [Compound 33, (1r,2R,3S)-N-((6^3S,4S,Z)-1^1-ethyl-1^2-(2-((S)-1-methoxyethyl)-5-(5-((R)-4-methylmorpholin-3-yl)isoxazol-3-yl)pyridin-3-yl)-10,10-dimethyl-5,7-dioxo-6^1,6^2,6^3,6^4,6^5,6^6-hexahydro-1^1H-8-oxa-2(4,2)-thiazola-1(5,3)-indola-6(1,3)-pyridazinacycloundecaphane-4-yl)-2,3-dimethylcyclopropane-1-carboxamide]
3 | 0.16 nM | 0.17 nM | CCn1c(-c2cc(-c3cc(C4(C)CN(C)C4)on3)cnc2[C@H](C)OC)c2c3cc(ccc31)-c1csc(n1)C[C@H](NC(=O)[C@H]1[C@H](C)[C@@H]1C)C(=O)N1CCC[C@H](N1)C(=O)OCC(C)(C)C2 (atropisomer, axis not shown) [Compound 34, (1r,2R,3S)-N-((6^3S,4S,Z)-1^2-(5-(5-(1,3-dimethylazetidin-3-yl)isoxazol-3-yl)-2-((S)-1-methoxyethyl)pyridin-3-yl)-1^1-ethyl-10,10-dimethyl-5,7-dioxo-6^1,6^2,6^3,6^4,6^5,6^6-hexahydro-1^1H-8-oxa-2(4,2)-thiazola-1(5,3)-indola-6(1,3)-pyridazinacycloundecaphane-4-yl)-2,3-dimethylcyclopropane-1-carboxamide]
4 | 4 nM | 2 nM | CCn1c(-c2cc(-c3cnc(CN4CCOCC4)cn3)cnc2[C@H](C)OC)c2c3cc(ccc31)-c1csc(n1)C[C@H](NC(=O)[C@H]1C[C@@H]1C)C(=O)N1CCC[C@H](N1)C(=O)OCC(C)(C)C2 (atropisomer, axis not shown) [Compound 35, (1S,2S)-N-((6^3S,4S,Z)-1^1-ethyl-1^2-(2-((S)-1-methoxyethyl)-5-(5-(morpholinomethyl)pyrazin-2-yl)pyridin-3-yl)-10,10-dimethyl-5,7-dioxo-6^1,6^2,6^3,6^4,6^5,6^6-hexahydro-1^1H-8-oxa-2(4,2)-thiazola-1(5,3)-indola-6(1,3)-pyridazinacycloundecaphane-4-yl)-2-methylcyclopropane-1-carboxamide]
5 | 0.39 nM | 1 nM | CCn1c(-c2cc(-c3ccn(CCN4CCOCC4)c(=O)c3)cnc2[C@H](C)OC)c2c3cc(ccc31)-c1csc(n1)C[C@H](NC(=O)[C@H]1[C@H](C)[C@@H]1C)C(=O)N1CCC[C@H](N1)C(=O)OCC(C)(C)C2 (atropisomer, axis not shown) [Compound 36, (1r,2R,3S)-N-((6^3S,4S,Z)-1^1-ethyl-1^2-(6-((S)-1-methoxyethyl)-1′-(2-morpholinoethyl)-2′-oxo-1′,2′-dihydro-[3,4′-bipyridin]-5-yl)-10,10-dimethyl-5,7-dioxo-6^1,6^2,6^3,6^4,6^5,6^6-hexahydro-1^1H-8-oxa-2(4,2)-thiazola-1(5,3)-indola-6(1,3)-pyridazinacycloundecaphane-4-yl)-2,3-dimethylcyclopropane-1-carboxamide]
6 | 0.9 nM | 1.8 nM | CCn1c(-c2cc(-c3cncc(CN4CCS(=O)(=O)CC4)c3)cnc2[C@H](C)OC)c2c3cc(ccc31)-c1csc(n1)C[C@H](NC(=O)[C@H]1[C@H](C)[C@@H]1C)C(=O)N1CCC[C@H](N1)C(=O)OCC(C)(C)C2 (atropisomer, axis not shown) [Compound 37, (1r,2R,3S)-N-((6^3S,4S,Z)-12-(5′-((1,1-dioxidothiomorpholino)methyl)-6-((S)-1-methoxyethyl)-[3,3′-bipyridin]-5-yl)-1^1-ethyl-10,10-dimethyl-5,7-dioxo-6^1,6^2,6^3,6^4,6^5,6^6-hexahydro-1^1H-8-oxa-2(4,2)-thiazola-1(5,3)-indola-6(1,3)-pyridazinacycloundecaphane-4-yl)-2,3-dimethylcyclopropane-1-carboxamide]
7 | 66 nM | 23 nM | CCn1c(-c2cc(-c3cnc(CN4CCS(=O)(=O)CC4)nc3)cnc2[C@H](C)OC)c2c3cc(ccc31)-c1csc(n1)C[C@H](NC(=O)[C@H]1C[C@@H]1C)C(=O)N1CCC[C@H](N1)C(=O)OCC(C)(C)C2 (atropisomer, axis not shown) [Compound 38, (1S,2S)-N-((6^3S,4S,Z)-1^2-(5-(2-((1,1-dioxidothiomorpholino)methyl)pyrimidin-5-yl)-2-((S)-1-methoxyethyl)pyridin-3-yl)-1^1-ethyl-10,10-dimethyl-5,7-dioxo-6^1,6^2,6^3,6^4,6^5,6^6-hexahydro-1^1H-8-oxa-2(4,2)-thiazola-1(5,3)-indola-6(1,3)-pyridazinacycloundecaphane-4-yl)-2-methylcyclopropane-1-carboxamide]
8 | 0.57 nM | 0.48 nM | CCn1c(-c2cc(-c3cnc(CN4CCOCC4)nc3)cnc2[C@H](C)OC)c2c3cc(ccc31)-c1csc(n1)C[C@H](NC(=O)[C@H]1[C@H](C)[C@@H]1C)C(=O)N1CCC[C@H](N1)C(=O)OCC(C)(C)C2 (atropisomer, axis not shown) [Compound 39, (1r,2R,3S)-N-((6^3S,4S,Z)-1^1-ethyl-1^2-(2-((S)-1-methoxyethyl)-5-(2-(morpholinomethyl)pyrimidin-5-yl)pyridin-3-yl)-10,10-dimethyl-5,7-dioxo-6^1,6^2,6^3,6^4,6^5,6^6-hexahydro-1H-8-oxa-2(4,2)-thiazola-1(5,3)-indola-6(1,3)-pyridazinacycloundecaphane-4-yl)-2,3-dimethylcyclopropane-1-carboxamide]
9 | 9.2 nM | 10 nM | CCn1c(-c2cc(-c3ccc(=O)n(CCN4CCOCC4)c3)cnc2[C@H](C)OC)c2c3cc(ccc31)-c1csc(n1)C[C@H](NC(=O)[C@H]1C[C@@H]1C)C(=O)N1CCC[C@H](N1)C(=O)OCC(C)(C)C2 (atropisomer, axis not shown) [Compound 40, (1S,2S)-N-((6^3S,4S,Z)-1^1-ethyl-1^2-(6-((S)-1-methoxyethyl)-1′-(2-morpholinoethyl)-6′-oxo-1′,6′-dihydro-[3,3′-bipyridin]-5-yl)-10,10-dimethyl-5,7-dioxo-6^1,6^2,6^3,6^4,6^5,6^6-hexahydro-1^1H-8-oxa-2(4,2)-thiazola-1(5,3)-indola-6(1,3)-pyridazinacycloundecaphane-4-yl)-2-methylcyclopropane-1-carboxamide]
